From PubChem BioAssay (NCI)
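Results reflect a 48-hour exposure of cells in 96-well plates to compound at five concentrations. The concentration for full growth arrest is given as TGI.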

Legend:
Test in all cases: DTP human tumour cell line panel, 48 h
SF-268 CNS = tested on: SF-268 CNS
SK-MEL-2 melanoma = tested on: SK-MEL-2 melanoma
MALME-3M melanoma = tested on: MALME-3M melanoma
SK-MEL-28 melanoma = tested on: SK-MEL-28 melanoma
MDA-MB-231 breast = tested on: MDA-MB-231 breast
U251 CNS = tested on: U251 CNS
PC-3 prostate = tested on: PC-3 prostate
BT-549 breast = tested on: BT-549 breast
NCI-H23 lung = tested on: NCI-H23 lung
SNB-19 CNS = tested on: SNB-19 CNS
MCF7 breast = tested on: MCF7 breast
SF-295 CNS = tested on: SF-295 CNS
OVCAR-3 ovarian = tested on: OVCAR-3 ovarian
A549 NSCLC = tested on: A549 NSCLC
TK-10 renal = tested on: TK-10 renal
UACC-62 melanoma = tested on: UACC-62 melanoma
MDA-N = tested on: MDA-N
NCI/ADR-RES ovarian = tested on: NCI/ADR-RES ovarian
HCT-15 colon = tested on: HCT-15 colon
IGROV1 ovarian = tested on: IGROV1 ovarian
SW-620 colon = tested on: SW-620 colon
LOX IMVI melanoma = tested on: LOX IMVI melanoma
NCI-H460 lung = tested on: NCI-H460 lung
HT29 colon = tested on: HT29 colon
SR leukemia = tested on: SR leukemia
A498 renal = tested on: A498 renal
MOLT-4 leukemia = tested on: MOLT-4 leukemia
T-47D breast = tested on: T-47D breast
HL-60(TB) leukemia = tested on: HL-60(TB) leukemia
CCRF-CEM leukemia = tested on: CCRF-CEM leukemia
SK-OV-3 ovarian = tested on: SK-OV-3 ovarian
NCI-H226 lung = tested on: NCI-H226 lung
K-562 leukemia = tested on: K-562 leukemia
KM12 colon = tested on: KM12 colon
OVCAR-4 ovarian = tested on: OVCAR-4 ovarian
SN12C renal = tested on: SN12C renal
OVCAR-8 ovarian = tested on: OVCAR-8 ovarian
HS 578T breast = tested on: HS 578T breast
SK-MEL-5 melanoma = tested on: SK-MEL-5 melanoma
UACC-257 melanoma = tested on: UACC-257 melanoma
786-0 renal = tested on: 786-0 renal
DU-145 prostate = tested on: DU-145 prostate
M14 melanoma = tested on: M14 melanoma
CAKI-1 renal = tested on: CAKI-1 renal
SF-539 CNS = tested on: SF-539 CNS
UO-31 renal = tested on: UO-31 renal
COLO 205 colon = tested on: COLO 205 colon
HCT-116 colon = tested on: HCT-116 colon
HOP-62 NSCLC = tested on: HOP-62 NSCLC
RPMI-8226 leukemia = tested on: RPMI-8226 leukemia
MDA-MB-435 = tested on: MDA-MB-435
NCI-H522 lung = tested on: NCI-H522 lung
ACHN renal = tested on: ACHN renal
EKVX NSCLC = tested on: EKVX NSCLC
OVCAR-5 ovarian = tested on: OVCAR-5 ovarian
HCC-2998 colon = tested on: HCC-2998 colon
RXF 393 renal = tested on: RXF 393 renal
HOP-92 NSCLC = tested on: HOP-92 NSCLC
SNB-75 CNS = tested on: SNB-75 CNS

For `O=C1NI(C#Cc2ccccc2)c2ccccc21`, the TGI (SF-268 CNS) was greater than 100 µM, the TGI (SK-MEL-2 melanoma) was greater than 100 µM and the TGI (MALME-3M melanoma) was greater than 100 µM. It also gave a TGI (SK-MEL-28 melanoma) greater than 100 µM, a TGI (MDA-MB-231 breast) greater than 100 µM and a TGI (U251 CNS) greater than 100 µM. For the same compound, the TGI (PC-3 prostate) was 79.6 µM, the TGI (BT-549 breast) was greater than 100 µM and the TGI (NCI-H23 lung) was greater than 100 µM. For the same compound, the TGI (SNB-19 CNS) was greater than 100 µM, the TGI (MCF7 breast) was 94.3 µM and the TGI (SF-295 CNS) was greater than 100 µM. The TGI (OVCAR-3 ovarian) was greater than 100 µM, the TGI (A549 NSCLC) was greater than 100 µM and the TGI (TK-10 renal) was greater than 100 µM. It also gave a TGI (UACC-62 melanoma) greater than 100 µM, a TGI (MDA-N) greater than 100 µM and a TGI (NCI/ADR-RES ovarian) greater than 100 µM. For the same compound, the TGI (HCT-15 colon) was greater than 100 µM, the TGI (IGROV1 ovarian) was greater than 100 µM and the TGI (SW-620 colon) was greater than 100 µM. It also gave a TGI (LOX IMVI melanoma) greater than 100 µM, a TGI (NCI-H460 lung) greater than 100 µM and a TGI (HT29 colon) greater than 100 µM. For the same compound, the TGI (SR leukemia) was greater than 100 µM, the TGI (A498 renal) was greater than 100 µM and the TGI (MOLT-4 leukemia) was greater than 100 µM. The TGI (T-47D breast) was greater than 100 µM, the TGI (HL-60(TB) leukemia) was greater than 100 µM and the TGI (CCRF-CEM leukemia) was 88.9 µM. The TGI (SK-OV-3 ovarian) was 95.1 µM, the TGI (NCI-H226 lung) was greater than 100 µM and the TGI (K-562 leukemia) was greater than 100 µM. For the same compound, the TGI (KM12 colon) was greater than 100 µM, the TGI (OVCAR-4 ovarian) was greater than 100 µM and the TGI (SN12C renal) was greater than 100 µM. For the same compound, the TGI (OVCAR-8 ovarian) was greater than 100 µM, the TGI (HS 578T breast) was greater than 100 µM and the TGI (SK-MEL-5 melanoma) was greater than 100 µM. The TGI (UACC-257 melanoma) was greater than 100 µM, the TGI (786-0 renal) was greater than 100 µM and the TGI (DU-145 prostate) was greater than 100 µM. It also gave a TGI (M14 melanoma) greater than 100 µM, a TGI (CAKI-1 renal) greater than 100 µM and a TGI (SF-539 CNS) greater than 100 µM. For the same compound, the TGI (UO-31 renal) was greater than 100 µM, the TGI (COLO 205 colon) was greater than 100 µM and the TGI (HCT-116 colon) was greater than 100 µM. It also gave a TGI (HOP-62 NSCLC) greater than 100 µM, a TGI (RPMI-8226 leukemia) greater than 100 µM and a TGI (MDA-MB-435) greater than 100 µM.
In the case of `CCCC(=O)N1CCN(c2ccc3c(c2)OC(C)O3)CC1` (stereo unspecified), the TGI (SF-268 CNS) was greater than 100 µM, the TGI (MALME-3M melanoma) was greater than 100 µM and the TGI (SK-MEL-28 melanoma) was greater than 100 µM. The TGI (MDA-MB-231 breast) was greater than 100 µM, the TGI (U251 CNS) was greater than 100 µM and the TGI (PC-3 prostate) was greater than 100 µM. For the same compound, the TGI (BT-549 breast) was greater than 100 µM, the TGI (NCI-H23 lung) was greater than 100 µM and the TGI (SNB-19 CNS) was greater than 100 µM. The TGI (MCF7 breast) was greater than 100 µM, the TGI (NCI-H522 lung) was greater than 100 µM and the TGI (ACHN renal) was greater than 100 µM. It also gave a TGI (SF-295 CNS) greater than 100 µM, a TGI (OVCAR-3 ovarian) greater than 100 µM and a TGI (A549 NSCLC) greater than 100 µM. For the same compound, the TGI (TK-10 renal) was greater than 100 µM, the TGI (UACC-62 melanoma) was greater than 100 µM and the TGI (EKVX NSCLC) was greater than 100 µM. It also gave a TGI (MDA-N) greater than 100 µM, a TGI (NCI/ADR-RES ovarian) greater than 100 µM and a TGI (OVCAR-5 ovarian) greater than 100 µM. It also gave a TGI (HCT-15 colon) greater than 100 µM, a TGI (IGROV1 ovarian) greater than 100 µM and a TGI (SW-620 colon) greater than 100 µM. The TGI (HCC-2998 colon) was greater than 100 µM, the TGI (RXF 393 renal) was greater than 100 µM and the TGI (HOP-92 NSCLC) was greater than 100 µM. For the same compound, the TGI (NCI-H460 lung) was greater than 100 µM, the TGI (HT29 colon) was greater than 100 µM and the TGI (SR leukemia) was greater than 100 µM. It also gave a TGI (A498 renal) greater than 100 µM, a TGI (MOLT-4 leukemia) greater than 100 µM and a TGI (T-47D breast) greater than 100 µM. It also gave a TGI (CCRF-CEM leukemia) greater than 100 µM, a TGI (SK-OV-3 ovarian) greater than 100 µM and a TGI (NCI-H226 lung) greater than 100 µM. It also gave a TGI (K-562 leukemia) greater than 100 µM, a TGI (KM12 colon) greater than 100 µM and a TGI (OVCAR-4 ovarian) greater than 100 µM. For the same compound, the TGI (SN12C renal) was greater than 100 µM, the TGI (OVCAR-8 ovarian) was greater than 100 µM and the TGI (HS 578T breast) was greater than 100 µM. It also gave a TGI (SK-MEL-5 melanoma) greater than 100 µM, a TGI (UACC-257 melanoma) greater than 100 µM and a TGI (786-0 renal) greater than 100 µM. It also gave a TGI (DU-145 prostate) greater than 100 µM, a TGI (M14 melanoma) greater than 100 µM and a TGI (CAKI-1 renal) greater than 100 µM. The TGI (SF-539 CNS) was greater than 100 µM, the TGI (UO-31 renal) was greater than 100 µM and the TGI (COLO 205 colon) was greater than 100 µM. For the same compound, the TGI (HCT-116 colon) was greater than 100 µM, the TGI (HOP-62 NSCLC) was greater than 100 µM and the TGI (SNB-75 CNS) was greater than 100 µM. For the same compound, the TGI (MDA-MB-435) was greater than 100 µM.
